In patent publication US7217704B2, “LPA receptor agonists and antagonists and methods of use” (The University of Tennessee Research Foundation, priority 2003, dated 2007):
“Also recorded” adds a separate entry of the source. Read-outs that look alike come from different tables or passages of the source.

Experiments:
[1] = target: T1, LPA2 (Homo sapiens, UniProt Q9HBW0); conditions: previously reported in Virag et al. (2003), cited from earlier work
T1 construct: expressed in transfected cells

[2] = target: T2, LPA3 (Homo sapiens, UniProt Q9UBY5); conditions: RH7777 cells expressing LPA3; previously reported in Virag et al. (2003); cited from earlier work
T2 construct: expressed in transfected cells
T2 sequence (Q9UBY5 1-353): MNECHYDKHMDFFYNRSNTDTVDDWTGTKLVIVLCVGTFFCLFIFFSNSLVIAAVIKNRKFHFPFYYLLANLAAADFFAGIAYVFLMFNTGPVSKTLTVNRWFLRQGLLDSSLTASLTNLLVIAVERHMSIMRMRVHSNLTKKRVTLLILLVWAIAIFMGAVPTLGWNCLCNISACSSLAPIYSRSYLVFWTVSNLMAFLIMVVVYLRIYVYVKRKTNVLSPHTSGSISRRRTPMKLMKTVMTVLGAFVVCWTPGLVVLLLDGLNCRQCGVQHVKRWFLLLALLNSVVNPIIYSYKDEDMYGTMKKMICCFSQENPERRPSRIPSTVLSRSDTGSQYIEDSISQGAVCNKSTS

[3] = target: T3, LPA1 (Homo sapiens, UniProt Q92633); conditions: RH7777 cells expressing LPA1; previously reported in Virag et al. (2003); cited from earlier work
T3 construct: expressed in transfected cells

[4] = tested on: IEC-6 cells; assay: Camptothecin-induced DNA fragmentation (apoptosis) in IEC-6 cells, ELISA; assay type: cell-based; conditions: Camptothecin 20 μM, LPA and FAP12 at 10 μM
Protocol: The experimental procedure utilized was substantially the same as that reported in Deng et al. (2002) and Deng et al., (2003).
Basically, IEC-6 cells were grown in DMEM medium supplemented with 5% fetal bovine serum, insulin (10 μg/ml), gentamycin sulfate (50 μg/ml), and incubated at 37° C. in a humidified 90% air–10% CO2 atmosphere. Medium was changed every other day. Sub-confluent cells were washed twice and replaced by DMEM without serum the night before experiments.
Damage and IEC-6 cell apoptosis was induced via either γ-irradiation or chemotherapy. 20 Gy single dose of [^137Cs] source γ-irradiation was used in all experiments. […] In some experiments, LPA was added at different times before or after irradiation. Treatment with 20 μM camptothecin of IEC-6 cells induces DNA fragmentation as measured by the ELISA assay at 16 h after treatment. DNA fragmentation was quantified using the Cell Death Detection ELISA kit from Boehringer (Indianapolis, Ind.) according to the instructions of the manufacturer. Samples were run in triplicate. A duplicate of the sample was used to quantify protein concentration using the BCA kit from Pierce (Rockford, Ill.). DNA fragmentation was expressed as absorbance units per μg protein per minute.

[5] = target: T2, LPA3; assay: Ca2+ transients (agonism / inhibition of LPA response) in RH7777 cells stably expressing LPA3; assay type: cell-based; conditions: for effect at LPA3 in words: Ca2+ transients
Protocol: (§1) The culture medium (DMEM containing 10% FBS) was then replaced with modified Krebs solution (120 mM NaCl, 5 mM KCl, 0.62 mM MgSO4, 1.8 mM CaCl2, 10 mM HEPES, 6 mM glucose, pH 7.4) and the cells were serum starved for 6–8 hours (12 h for PC-3 cells). Cells were loaded with Fura-2 AM for 35 minutes in modified Krebs medium. The Fura-2 was removed before loading the plate in the FlexStation instrument by replacing the medium once again with 100 μl modified Krebs medium/well. Plates were incubated for 4 minutes in the instrument to allow for warming to 37° C. Changes in intracellular Ca^2+ concentration were monitored by measuring the ratio of emitted light intensity at 520 nm in response to excitation by 340 nm and 380 nm wavelength lights, respectively. Each well was monitored for 80–120 seconds. […] Time courses were recorded using the SoftMax Pro software (Molecular Devices, Sunnyvale, Calif.). Ca^2+ transients were quantified automatically by calculating the difference between maximum and baseline ratio values for each well.
(§2) Each FAP analog was tested for the ability to induce Ca^2+ transients in RH7777 cells transfected with LPA1-3 receptors (agonism), as well as the ability to inhibit LPAinduced Ca^2+ transients in the same cells (antagonism) (Table 3).

[6] = target: T1, LPA2; assay: Ca2+ transients (agonism / inhibition of LPA response) in RH7777 cells stably expressing LPA2; assay type: cell-based; conditions: for Emax: RH7777, read-out: LPA2 (Emax)
Protocol: as §1, §2

[7] = tested on: PC-3 cells; assay: Ca2+ transients in PC-3 cells endogenously expressing LPA1-3; assay type: cell-based, human; conditions: for effect in PC-3 cells in words: Ca2+ transients; for Emax: PC-3, read-out: PC-3 (Emax)
Protocol: as §1
We tested the FAP analogs in PC-3 cells, which unlike the transfected RH7777 cells endogenously express LPA1-3 receptors.

[8] = target: T3, LPA1; assay: Ca2+ transients (agonism / inhibition of LPA response) in RH7777 cells stably expressing LPA1; assay type: cell-based; conditions: for effect at LPA1 in words: Ca2+ transients
Protocol: as §1, §2

[9] = target: T4, PPARγ (Homo sapiens, UniProt P37231); assay: PPARγ activation in CV1 cells, PPRE-Acox-Rluc reporter gene assay; conditions: 10 μM test compound, 20 h
T4 sequence (P37231 1-505): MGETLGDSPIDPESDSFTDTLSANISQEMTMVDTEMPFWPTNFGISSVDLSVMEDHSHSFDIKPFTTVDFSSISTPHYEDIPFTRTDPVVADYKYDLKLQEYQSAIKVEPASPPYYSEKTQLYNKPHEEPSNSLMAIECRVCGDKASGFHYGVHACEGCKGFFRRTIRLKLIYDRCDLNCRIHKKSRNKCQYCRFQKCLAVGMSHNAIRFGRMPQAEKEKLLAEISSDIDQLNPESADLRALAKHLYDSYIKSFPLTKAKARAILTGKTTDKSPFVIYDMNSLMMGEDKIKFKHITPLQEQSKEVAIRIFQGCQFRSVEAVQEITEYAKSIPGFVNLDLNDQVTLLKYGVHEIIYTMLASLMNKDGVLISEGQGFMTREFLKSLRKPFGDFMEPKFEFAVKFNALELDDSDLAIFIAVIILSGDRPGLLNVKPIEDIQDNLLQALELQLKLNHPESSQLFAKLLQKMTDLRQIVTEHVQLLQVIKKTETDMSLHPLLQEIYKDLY
Protocol: Comparing the effects with the Rosiglitazone, a known PPARγ agonist, CV1 cells were treated with 1% DMSO or 10 μM of test compound dissolved in DMSO for 20 h. Luciferase and β-galactosidase activities (mean±SEM) were measured in the cell lysate (n=4). *P<0.05 and **P<0.01, significant differences over vehicle control.
The assay of PPARγ activation in CV1 cells was run as reported in Zhang et al. Briefly, CV-1 cells were plated in 96-well plates (5×10^3 cells per well) in Dulbecco's modified Eagle's medium supplemented with 10% fetal bovine serum. […] Samples were run in quadruplicate and the mean±standard errors were calculated. Data are representative of at least two independent transfections. Student's t-test was used for null hypothesis testing and P<0.05 was considered transfection, cells were treated with 1% FBS supplemented OptiMEMI (Invitrogen) containing DMSO or 10 μM test compound dissolved in DMSO for 20 h. Luciferase and β-galactosidase activities were measured with the Steady-Glo® Luciferase Assay significant (in the figures P<0.05 is denoted by * and P<0.01 is **).

[10] = Homo sapiens, PC-3, read-out: PC-3 IC50
[11] = inhibition of LPA-induced Ca2+ transients, PC-3 cells
[12] = induction of Ca2+ transients, RH7777 cells expressing LPA3, read-out: LPA3 EC50
[13] = inhibition of LPA-induced Ca2+ transients, RH7777 cells expressing LPA3, read-out: LPA3 (Ki)
[14] = inhibition of LPA-induced Ca2+ transients, RH7777 cells expressing LPA3, read-out: LPA3 IC50
[15] = induction of Ca2+ transients, RH7777 cells expressing LPA2, read-out: LPA2 EC50
[16] = inhibition of LPA-induced Ca2+ transients, RH7777 cells expressing LPA2, read-out: LPA2 IC50
[17] = inhibition of LPA-induced Ca2+ transients, PC-3 cells, read-out: PC-3 IC50
[18] = induction of Ca2+ transients, RH7777 cells expressing LPA1, read-out: LPA1 EC50
[19] = inhibition of LPA-induced Ca2+ transients, RH7777 cells expressing LPA1, read-out: LPA1 IC50

T1 sequence (Q9HBW0 whole entry): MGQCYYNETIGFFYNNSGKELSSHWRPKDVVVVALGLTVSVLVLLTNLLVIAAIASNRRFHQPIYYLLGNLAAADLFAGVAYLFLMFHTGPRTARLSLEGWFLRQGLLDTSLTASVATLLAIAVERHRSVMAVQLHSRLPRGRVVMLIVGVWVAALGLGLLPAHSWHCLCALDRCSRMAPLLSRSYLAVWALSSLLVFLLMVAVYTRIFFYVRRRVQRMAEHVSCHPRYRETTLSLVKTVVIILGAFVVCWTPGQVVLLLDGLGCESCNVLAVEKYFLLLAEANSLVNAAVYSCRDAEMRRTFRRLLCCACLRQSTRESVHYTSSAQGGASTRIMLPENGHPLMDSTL
T3 sequence (Q92633 whole entry): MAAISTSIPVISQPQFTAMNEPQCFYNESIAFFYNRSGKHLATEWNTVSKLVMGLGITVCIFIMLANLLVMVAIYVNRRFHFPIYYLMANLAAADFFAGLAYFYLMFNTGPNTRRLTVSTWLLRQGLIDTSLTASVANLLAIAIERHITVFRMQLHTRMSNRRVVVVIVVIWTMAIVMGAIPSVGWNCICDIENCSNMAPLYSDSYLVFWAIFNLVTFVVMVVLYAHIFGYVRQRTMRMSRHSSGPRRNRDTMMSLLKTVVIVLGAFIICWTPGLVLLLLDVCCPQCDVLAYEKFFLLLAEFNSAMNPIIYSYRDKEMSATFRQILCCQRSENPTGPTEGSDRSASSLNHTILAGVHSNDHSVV

For `CCCCCCCCCCOP(=O)(O)O` [Compound 2a], the IC50 ([1]; RH7777 cells expressing LPA2) is listed as > 30 µM, the EC50 [2] is listed as > 30 µM and the EC50 [3] is listed as > 30 µM. For the same molecule, the IC50 [3] was > 30 µM.

In the case of `CCCCCCCCCCCCOP(=O)(O)O` [Compound 2b], the “inhibition of Camptothecin-induced DNA fragmentation in words” value [4] is given as “inhibited”, the IC50 ([1]; RH7777 cells expressing LPA2) is given as > 30 µM and the “LPA2 (Emax)” value ([1]; relative to LPA 18:1) is given as 50%. For the same molecule, the EC50 [2] was > 30 µM, the IC50 [2] was 0.128 µM and the Ki [2] was 0.061 µM. The EC50 [3] was > 30 µM.

In the case of `CCCCCCCCCCCCCCOP(=O)(O)O` [Compound 2c], the EC50 ([1]; RH7777 cells expressing LPA2) is listed as > 30 µM, the IC50 ([1]; RH7777 cells expressing LPA2) is listed as > 30 µM and the EC50 [2] is listed as > 30 µM. For the same molecule, the EC50 [3] was > 30 µM.

For `CCC=CCCCCCCCCOP(O)(O)=S` [Compound 8e, Thiophosphoric acid O-dodec-9-enyl ester], the EC50 [5] was > 30 µM, the IC50 [5] was 0.027 µM and the Ki [5] was 0.014 µM. For the same molecule, the “effect at LPA3 in words” value ([5]; RH7777 cells expressing LPA3) was “equipotent antagonist as 8f”, the EC50 [6] was 0.677 µM and the IC50 [6] was > 30 µM. For the same molecule, the Emax [6] was 100%, the “effect in PC-3 cells in words” value ([7]; PC-3 cells) was “both independent activation and inhibition of LPA-induced Ca^2+ transients” and the Emax ([7]; Homo sapiens) was 27%. For the same molecule, the IC50 [7, 10] was 2.97 µM, the Ki [7, 11] was 1.46 µM and the EC50 [8] was > 30 µM. The IC50 [8] was > 30 µM.

For `CCCCC=CCCCCCCCCOP(O)(O)=S` [Compound 8f, Thiophosphoric acid O-tetradec-9-enyl ester], the EC50 [5] was > 30 µM, the IC50 [5] was 0.028 µM and the Ki [5] was 0.014 µM. For the same molecule, the EC50 [6] was 0.48 µM, the IC50 [6] was > 30 µM and the Emax [6] was 150%. The “effect in PC-3 cells in words” value ([7]; PC-3 cells) was “both independent activation and inhibition of LPA-induced Ca^2+ transients”, the Emax ([7]; Homo sapiens) was 40% and the IC50 [7, 10] was 0.938 µM. For the same molecule, the Ki [7, 11] was 0.397 µM, the EC50 [8] was > 30 µM and the IC50 [8] was > 30 µM. For the same molecule, the “effect at LPA1 in words” value ([8]; RH7777 cells expressing LPA1) was “no effect on the LPA-induced Ca^2+ mobilization”.

With `CCCCCCCCCCP(=O)(O)O` [Compound 9a, n-decyl-phosphonate] the EC50 [5, 12] was > 30 µM, the Ki [5, 13] was 0.068 µM and the IC50 [5, 14] was 1.2 µM. For the same molecule, the EC50 [6, 15] was > 30 µM, the IC50 [6, 16] was > 30 µM and the Ki [7, 11] was 1.5 µM. For the same molecule, the IC50 [7, 17] was 3.12 µM, the EC50 [8, 18] was > 30 µM and the IC50 [8, 19] was > 30 µM.

In the case of `CCCCCCCCCCCCP(=O)(O)O` [Compound 9b, n-dodecyl-phosphonate], the EC50 [5, 12] is reported as > 30 µM, the Ki [5, 13] is reported as 0.303 µM and the IC50 [5, 14] is reported as 0.654 µM. For the same molecule, the EC50 [6, 15] was > 30 µM, the IC50 [6, 16] was > 30 µM and the Ki [7, 11] was 1.27 µM. For the same molecule, the IC50 [7, 17] was 2.64 µM, the EC50 [8, 18] was > 30 µM and the IC50 [8, 19] was > 30 µM.

With `CCCCCCCCCCCCCCP(=O)(O)O` [Compound 9c, n-tetradecyl-phosphonate] the “effect at LPA3 in words” value ([5]; RH7777 cells expressing LPA3) was “IC50 values in the micromolar range”, the EC50 [5, 12] was > 30 µM and the Ki [5, 13] was 1.12 µM. For the same molecule, the IC50 [5, 14] was 3.1 µM, the “effect at LPA2 in words” value ([6]; Ca2+ transients, RH7777 cells expressing LPA2) was “IC50 values in the micromolar range” and the EC50 [6, 15] was > 30 µM. It also gave a Ki ([6]; inhibition of LPA-induced Ca2+ transients, RH7777 cells expressing LPA2) of 3.55 µM, an IC50 [6, 16] of 5.5 µM and a Ki [7, 11] of 4.62 µM. The IC50 [7, 17] was 9.67 µM, the “effect at LPA1 in words” value ([8]; RH7777 cells expressing LPA1) was “IC50 values in the micromolar range” and the EC50 [8, 18] was > 30 µM. It also gave an IC50 [8, 19] of ~10 µM.

For `CCCCCCCCCCCCCCCCCCP(=O)(O)O` [Compound 9d, n-octadecyl-phosphonate], the EC50 [5, 12] was > 30 µM, the IC50 [5, 14] was > 30 µM and the EC50 [6, 15] was > 30 µM. For the same molecule, the IC50 [6, 16] was > 30 µM, the EC50 ([7]; induction of Ca2+ transients, PC-3 cells, read-out: PC-3 EC50) was > 30 µM and the IC50 [7, 17] was > 30 µM. For the same molecule, the EC50 [8, 18] was > 30 µM and the IC50 [8, 19] was > 30 µM.

For `CCCCCCCC/C=C\CCCCCCCC(=O)OC[C@@H](COP(O)(O)=S)OC` [OMPT], the “PPARγ activation (PPRE-Acox-Rluc reporter) in words” value [9] was “can activate PPRE-Acox-Rluc reporter”.

For lysophosphatidic acid [LPA], the “inhibition of Camptothecin-induced DNA fragmentation in words” value [4] was “inhibited; also recorded: dose-dependently inhibit DNA fragmentation”.
